Measurements from PubChem BioAssay (NCI).
Several values for one entry are separate records, joined by “and”; a condition that tells them apart may be missing. Identical values can stand only once.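 Exposure lasted 48 hours, with cells grown in 96-well plates and compounds tested at five concentrations. The concentration for 50% growth inhibition is given as GI50. TGI: total growth inhibition.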

Columns and labels:
Experiment in all cases: NCI-60 cell line screen, 48 h
RXF 393 renal = tested on: RXF 393 renal
SK-MEL-2 melanoma = tested on: SK-MEL-2 melanoma
MDA-MB-231 breast = tested on: MDA-MB-231 breast
OVCAR-4 ovarian = tested on: OVCAR-4 ovarian
CAKI-1 renal = tested on: CAKI-1 renal
U251 CNS = tested on: U251 CNS
T-47D breast = tested on: T-47D breast
NCI-H460 lung = tested on: NCI-H460 lung
UO-31 renal = tested on: UO-31 renal
SF-268 CNS = tested on: SF-268 CNS

`O=S(=O)(O)Nc1ccc(-c2nc3ccccc3s2)cc1Cl` was tested, and the TGI (RXF 393 renal) was over 100 µM, the TGI (SK-MEL-2 melanoma) was over 100 µM and the TGI (MDA-MB-231 breast) was over 100 µM. It also gave a TGI (OVCAR-4 ovarian) of over 100 µM, a TGI (CAKI-1 renal) of over 100 µM and a TGI (U251 CNS) of over 100 µM. It also gave a TGI (T-47D breast) of over 100 µM, a TGI (NCI-H460 lung) of over 100 µM and a TGI (UO-31 renal) of over 100 µM.

`N#Cc1nsnc1-c1nc(-c2nsnc2C#N)nc(-c2nsnc2C#N)n1` showed a TGI (RXF 393 renal) of over 100 µM, a TGI (SK-MEL-2 melanoma) of over 100 µM and a TGI (MDA-MB-231 breast) of over 100 µM. It also gave a TGI (SF-268 CNS) of over 100 µM, a TGI (OVCAR-4 ovarian) of over 100 µM and a TGI (CAKI-1 renal) of over 100 µM. The TGI (U251 CNS) was over 100 µM, the TGI (NCI-H460 lung) was over 100 µM and the TGI (UO-31 renal) was over 100 µM.

`Cn1c2ccccc2n2c3ccccc3c(=S)c(C#N)c12` showed a TGI (RXF 393 renal) of over 100 µM, a TGI (SK-MEL-2 melanoma) of over 100 µM and a TGI (SF-268 CNS) of over 100 µM. It also gave a TGI (OVCAR-4 ovarian) of over 100 µM, a TGI (CAKI-1 renal) of over 100 µM and a TGI (U251 CNS) of over 100 µM. It also gave a TGI (NCI-H460 lung) of over 100 µM and a TGI (UO-31 renal) of over 100 µM.

With `CC(=O)/C=C/c1c[nH]c(=O)[nH]c1=O` the TGI (RXF 393 renal) was 416 µM, the TGI (SK-MEL-2 melanoma) was 444 µM and the TGI (SF-268 CNS) was 720 µM. The TGI (OVCAR-4 ovarian) was 883 µM, the TGI (CAKI-1 renal) was 178 µM and the TGI (U251 CNS) was 503 µM. It also gave a TGI (NCI-H460 lung) of 613 µM and a TGI (UO-31 renal) of 397 µM.

In the case of `O=C(c1ccc(Cl)cc1)N(C(=S)N1CCN(c2ccccc2)CC1)c1ccccc1`, the TGI (RXF 393 renal) is reported as over 100 µM, the TGI (SK-MEL-2 melanoma) is reported as over 100 µM and the TGI (SF-268 CNS) is reported as over 100 µM. The TGI (OVCAR-4 ovarian) was over 100 µM, the TGI (CAKI-1 renal) was over 100 µM and the TGI (U251 CNS) was over 100 µM. It also gave a TGI (NCI-H460 lung) of over 100 µM and a TGI (UO-31 renal) of over 100 µM.

With `CC1CSc2nc3[nH]c(=S)[nH]c3c(=O)n2C1` (configuration not stated) the TGI (RXF 393 renal) was over 100 µM, the TGI (MDA-MB-231 breast) was over 100 µM and the TGI (SF-268 CNS) was over 100 µM. For the same molecule, the TGI (OVCAR-4 ovarian) was over 100 µM, the TGI (CAKI-1 renal) was over 100 µM and the TGI (U251 CNS) was over 100 µM. For the same molecule, the TGI (T-47D breast) was over 100 µM, the TGI (NCI-H460 lung) was over 100 µM and the TGI (UO-31 renal) was over 100 µM.

`C[C@@H]1CCN(C(=O)CC#N)C[C@@H]1N(C)c1ncnc2[nH]ccc12` gave a GI50 (RXF 393 renal) of 16.3 µM, a TGI (RXF 393 renal) of 85.3 µM and a GI50 (SK-MEL-2 melanoma) of over 100 µM. The TGI (SK-MEL-2 melanoma) was over 100 µM, the GI50 (SF-268 CNS) was 73.1 µM and the TGI (SF-268 CNS) was over 100 µM. The GI50 (OVCAR-4 ovarian) was over 100 µM, the TGI (OVCAR-4 ovarian) was over 100 µM and the GI50 (CAKI-1 renal) was 42.1 µM. It also gave a TGI (CAKI-1 renal) of over 100 µM, a GI50 (U251 CNS) of over 100 µM and a TGI (U251 CNS) of over 100 µM. For the same molecule, the GI50 (T-47D breast) was over 100 µM, the TGI (T-47D breast) was over 100 µM and the GI50 (NCI-H460 lung) was over 100 µM. The TGI (NCI-H460 lung) was over 100 µM, the GI50 (UO-31 renal) was 31.3 µM and the TGI (UO-31 renal) was over 100 µM.

`O=C1CNc2cc(N3CCN(c4cccc(C(F)(F)F)c4)CC3)ccc2N1` was tested, and the TGI (SK-MEL-2 melanoma) was over 100 µM, the TGI (MDA-MB-231 breast) was over 100 µM and the TGI (SF-268 CNS) was over 100 µM. It also gave a TGI (OVCAR-4 ovarian) of over 100 µM, a TGI (CAKI-1 renal) of over 100 µM and a TGI (U251 CNS) of over 100 µM. For the same molecule, the TGI (T-47D breast) was over 100 µM, the TGI (NCI-H460 lung) was over 100 µM and the TGI (UO-31 renal) was over 100 µM.

Molecule `CNC(=O)CNC(=O)CCC(=O)N(C)C` has a TGI (SK-MEL-2 melanoma) of over 100 µM, a TGI (MDA-MB-231 breast) of over 100 µM and a TGI (SF-268 CNS) of over 100 µM. It also gave a TGI (CAKI-1 renal) of over 100 µM, a TGI (U251 CNS) of over 100 µM and a TGI (T-47D breast) of over 100 µM. It also gave a TGI (NCI-H460 lung) of over 100 µM and a TGI (UO-31 renal) of over 100 µM.

In the case of `CCCCCC(/C=N/NC(N)=S)C(O)(C(F)(F)F)C(F)(F)F` (configuration not stated), the TGI (RXF 393 renal) is reported as over 10 µM, the TGI (SK-MEL-2 melanoma) is reported as over 10 µM and the TGI (MDA-MB-231 breast) is reported as over 10 µM. It also gave a TGI (SF-268 CNS) of over 10 µM, a TGI (OVCAR-4 ovarian) of over 10 µM and a TGI (CAKI-1 renal) of over 10 µM. For the same molecule, the TGI (U251 CNS) was over 10 µM, the TGI (T-47D breast) was over 10 µM and the TGI (NCI-H460 lung) was over 10 µM.

`CSc1nc(-c2cc3c(c(SC)n2)CCC3)cc2c1CCC2` gave a TGI (RXF 393 renal) of over 100 µM, a TGI (SK-MEL-2 melanoma) of over 100 µM and a TGI (MDA-MB-231 breast) of over 100 µM. It also gave a TGI (SF-268 CNS) of over 100 µM, a TGI (OVCAR-4 ovarian) of over 100 µM and a TGI (CAKI-1 renal) of over 100 µM. It also gave a TGI (U251 CNS) of over 100 µM, a TGI (NCI-H460 lung) of over 100 µM and a TGI (UO-31 renal) of over 100 µM.

With `COc1ccc(S(=O)Cc2cc(OC)ccc2OC)cc1` (configuration not stated) the TGI (RXF 393 renal) was over 100 µM, the TGI (MDA-MB-231 breast) was over 100 µM and the TGI (SF-268 CNS) was over 100 µM. It also gave a TGI (OVCAR-4 ovarian) of over 100 µM, a TGI (CAKI-1 renal) of over 100 µM and a TGI (U251 CNS) of over 100 µM. The TGI (T-47D breast) was over 100 µM, the TGI (NCI-H460 lung) was over 100 µM and the TGI (UO-31 renal) was over 100 µM.

Molecule `CCC(/C=C/c1ccccc1)=N\NC(=S)N/N=C(/C=C/c1ccccc1)CC` has a TGI (RXF 393 renal) of over 100 µM, a TGI (MDA-MB-231 breast) of over 100 µM and a TGI (SF-268 CNS) of over 100 µM. For the same molecule, the TGI (OVCAR-4 ovarian) was over 100 µM, the TGI (CAKI-1 renal) was over 100 µM and the TGI (U251 CNS) was over 100 µM. The TGI (T-47D breast) was over 100 µM, the TGI (NCI-H460 lung) was over 100 µM and the TGI (UO-31 renal) was over 100 µM.

With `O=[N+]([O-])c1cccc2nc3ccccc3c(NCCNCCO)c12` the TGI (RXF 393 renal) was 0.0205 µM, the TGI (SK-MEL-2 melanoma) was 0.00744 µM and the TGI (MDA-MB-231 breast) was 0.0668 µM and 0.0816 µM. The TGI (OVCAR-4 ovarian) was 0.0162 µM, the TGI (CAKI-1 renal) was 0.088 µM and the TGI (U251 CNS) was 0.0467 µM and 0.0298 µM. The TGI (T-47D breast) was 0.101 µM and 0.0533 µM, the TGI (NCI-H460 lung) was 0.108 µM and the GI50 (UO-31 renal) was 0.0448 µM. For the same molecule, the TGI (UO-31 renal) was 0.392 µM and 0.192 µM.

Molecule `COC(=O)CC1(O)C(C=C(C)C)C(C(=O)OC)C(=O)C(C(=O)OC)C1C(=O)OC` (configuration not stated) has a TGI (RXF 393 renal) of over 100 µM, a TGI (SK-MEL-2 melanoma) of over 100 µM and a TGI (MDA-MB-231 breast) of over 100 µM. It also gave a TGI (SF-268 CNS) of over 100 µM, a TGI (OVCAR-4 ovarian) of over 100 µM and a TGI (CAKI-1 renal) of over 100 µM. The TGI (U251 CNS) was over 100 µM, the TGI (NCI-H460 lung) was over 100 µM and the TGI (UO-31 renal) was over 100 µM.

Work on `COC(=O)c1cc(C)ccc1CC(Cc1ccccc1C)C(=O)OC` (configuration not stated) yielded a TGI (RXF 393 renal) of 77.6 µM, a TGI (MDA-MB-231 breast) of over 100 µM and a TGI (SF-268 CNS) of over 100 µM. It also gave a TGI (OVCAR-4 ovarian) of over 100 µM, a TGI (CAKI-1 renal) of over 100 µM and a TGI (T-47D breast) of over 100 µM. It also gave a TGI (NCI-H460 lung) of over 100 µM and a TGI (UO-31 renal) of over 100 µM.

With `Cc1ccc(-c2c(C#N)c(S)n(NS(=O)(=O)c3ccccc3)c(=O)c2C#N)cc1` the TGI (RXF 393 renal) was over 100 µM, the TGI (SK-MEL-2 melanoma) was over 100 µM and the TGI (MDA-MB-231 breast) was over 100 µM. The TGI (OVCAR-4 ovarian) was over 100 µM, the TGI (CAKI-1 renal) was 92.9 µM and the TGI (U251 CNS) was 83.5 µM. The TGI (NCI-H460 lung) was 31.3 µM and the TGI (UO-31 renal) was 51.4 µM.
